The values below are quoted from earlier work in publication PMC3293351, “Pharmacokinetics and Excretion Studies on CDRI-85/92, an Antiulcer Proton Pump Inhibitor” (Scientia Pharmaceutica, 2011).

One data set concerns gastric proton pump. Conditions: cited from earlier work.
On the set-up of data set [1]: method as in PMID 12563304. The settings on record: in rats; cited from earlier work.

For the compound `COc1ccc2[nH]c([S+]([O-])Cc3ncc(C)c(OC)c3C)nc2c1` (centres unmarked) [Omeprazole, reference compound], in the data set on gastric proton pump, the “Type of proton pump inhibition” value was “irreversible proton pump inhibitor”. In addition, the half-life entry in data set [1] is on record as “less than 5 min”.
